Laboratory results from patent EP2025678A1, “Pyrazolo[3,4-d]pyrimidine compounds and their use as modulators of protein kinase” (Oncalis AG, priority 2007, dated 2009).

How the values were obtained:
human EphB4 [1] = target: T1, human EphB4 (Homo sapiens, UniProt P54760); test: in vitro enzymatic kinase assay EphB4 (ADP Hunter assay kit); format: biochemical; details: cell-free; ATP 300uM; poly (Glu4-Tyr) 800uM
T1 sequence (P54760 16-987): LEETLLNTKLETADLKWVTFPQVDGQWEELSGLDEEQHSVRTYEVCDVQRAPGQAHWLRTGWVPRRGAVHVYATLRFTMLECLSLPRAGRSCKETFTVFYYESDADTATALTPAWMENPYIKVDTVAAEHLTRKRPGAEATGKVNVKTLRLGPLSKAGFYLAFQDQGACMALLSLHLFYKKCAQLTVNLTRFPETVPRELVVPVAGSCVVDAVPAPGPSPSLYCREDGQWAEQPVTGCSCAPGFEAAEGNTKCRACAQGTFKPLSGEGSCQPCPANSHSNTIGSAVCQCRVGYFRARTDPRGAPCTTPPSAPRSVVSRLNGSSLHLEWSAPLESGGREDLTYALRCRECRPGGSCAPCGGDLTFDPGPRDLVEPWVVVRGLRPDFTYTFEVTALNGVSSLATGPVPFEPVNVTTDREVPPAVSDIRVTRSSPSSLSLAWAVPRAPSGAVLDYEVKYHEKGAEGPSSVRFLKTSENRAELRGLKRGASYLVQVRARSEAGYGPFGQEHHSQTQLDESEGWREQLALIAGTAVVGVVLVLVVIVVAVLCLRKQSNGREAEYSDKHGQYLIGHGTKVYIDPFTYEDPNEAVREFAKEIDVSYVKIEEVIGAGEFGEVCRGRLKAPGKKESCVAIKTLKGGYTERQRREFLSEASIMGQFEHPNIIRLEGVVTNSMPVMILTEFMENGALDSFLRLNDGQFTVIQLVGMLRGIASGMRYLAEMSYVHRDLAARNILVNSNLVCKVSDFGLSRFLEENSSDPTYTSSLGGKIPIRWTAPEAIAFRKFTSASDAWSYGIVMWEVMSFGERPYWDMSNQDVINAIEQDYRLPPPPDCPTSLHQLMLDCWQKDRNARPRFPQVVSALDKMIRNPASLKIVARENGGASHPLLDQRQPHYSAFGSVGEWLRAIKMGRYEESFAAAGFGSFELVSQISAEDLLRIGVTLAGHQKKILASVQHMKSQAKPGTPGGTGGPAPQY
Method: EphB4 inhibition activity of compounds was measured in an in vitro enzymatic kinase assay using the ADP Hunter assay kit (DiscoveRx Corp.), which measures accumulation of ADP produced by the kinase enzyme activity. EphB4 kinase (2ug/mL) is preincubated with different concentrations of compounds for 15 minutes at room temperature in kinase buffer (HEPES 15mM, MgCl2 10mM, EDTA 0.5mM, NaCl 20mM, Tween-20 0.02%, pH 7.4). ATP (300uM) is added and the mixture is incubated for 30 minutes at room temperature for enzyme activation. The peptide substrate poly (Glu4-Tyr) 800uM is added and the mixture is incubated for 60 minutes at 30°C. An enzyme- coupled reaction produces a red-shifted fluorescent signal that is directly proportional to the amount of ADP in solution. Fluorescence emission is measured at 590nm with excitation at 535nm.

human EphB4 [2] = target: T1, human EphB4; test: Cellular autophosphorylation assay EphB4 (ELISA) in CHO-EphB4 cells; format: cell-based; design: stably transfected with myc-tagged full length human EphB4; expressed in transfected cells; host or cells: CHO (chinese hamster ovary); details: ephrinB2/Fc induced autophosphorylation
Method: CHO (chinese hamster ovary) cells were stably transfected with myc-tagged full length human EphB4. A cell line expressing EphB4 of which the phosphorylation was inducible with ephrinB2/Fc was identified and called CHO-EphB4. CHO-EphB4 cells were seeded into 96-well plates and cultured overnight in HAM-F12 medium supplemented with 10% fetal calf serum (FCS). Cells were washed once with PBS and different concentrations of compounds in HAM-F12 medium (final concentration of DMSO in the assay was 1%) were added. Cells were incubated at 37°C for 15 minutes. Ligand ephrinB2/Fc (R&D Systems, 1ug/mL final), which had been pre-clustered with anti-IgG Fc antibody (Jackson ImmunoResearch) for 45 minutes at room temperature, was added and cells were further incubated at 37°C for 45 minutes. Cells were lysed in 30uL lysis buffer per well (20mM Tris pH8, 150mM NaCl, 10% glycerol, 1% Triton X-100, 1mM Na3VO4, 1mM EDTA pH8, 1mM EGTA pH8, 1x protease inhibitor cocktail Sigma). ELISA 96-well plates (Nunc, Maxisorp) were coated with 100uL/well anti-c-myc antibody (Sigma) overnight at 4°C, blocked with 300uL/well 5% milk in TBS/0.005% Tween 20 (TBST) for 1 to 3 hours at room temperature, and incubated with 25uL/well cell lysate overnight at 4°C. ELISA plates were washed twice with TBST and incubated with 100uL/well antiphosphotyrosine HRP-coupled antibody (Upstate) diluted 1:1000 in 5% milk in TBST for 1.5 hour at room temperature and developed with 100uL/well BM BluePOD substrate (Roche). Absorbance was measured at 450nm.

PDGFRb = target: T2, PDGFRb (Homo sapiens, UniProt P09619); test: yeast growth assay, specificity profiling, PDGFRb; format: cell-based; details: Table Y; legend not given
T2 construct: expressed in transfected cells; host or cells: yeast
T2 sequence (P09619 33-1106): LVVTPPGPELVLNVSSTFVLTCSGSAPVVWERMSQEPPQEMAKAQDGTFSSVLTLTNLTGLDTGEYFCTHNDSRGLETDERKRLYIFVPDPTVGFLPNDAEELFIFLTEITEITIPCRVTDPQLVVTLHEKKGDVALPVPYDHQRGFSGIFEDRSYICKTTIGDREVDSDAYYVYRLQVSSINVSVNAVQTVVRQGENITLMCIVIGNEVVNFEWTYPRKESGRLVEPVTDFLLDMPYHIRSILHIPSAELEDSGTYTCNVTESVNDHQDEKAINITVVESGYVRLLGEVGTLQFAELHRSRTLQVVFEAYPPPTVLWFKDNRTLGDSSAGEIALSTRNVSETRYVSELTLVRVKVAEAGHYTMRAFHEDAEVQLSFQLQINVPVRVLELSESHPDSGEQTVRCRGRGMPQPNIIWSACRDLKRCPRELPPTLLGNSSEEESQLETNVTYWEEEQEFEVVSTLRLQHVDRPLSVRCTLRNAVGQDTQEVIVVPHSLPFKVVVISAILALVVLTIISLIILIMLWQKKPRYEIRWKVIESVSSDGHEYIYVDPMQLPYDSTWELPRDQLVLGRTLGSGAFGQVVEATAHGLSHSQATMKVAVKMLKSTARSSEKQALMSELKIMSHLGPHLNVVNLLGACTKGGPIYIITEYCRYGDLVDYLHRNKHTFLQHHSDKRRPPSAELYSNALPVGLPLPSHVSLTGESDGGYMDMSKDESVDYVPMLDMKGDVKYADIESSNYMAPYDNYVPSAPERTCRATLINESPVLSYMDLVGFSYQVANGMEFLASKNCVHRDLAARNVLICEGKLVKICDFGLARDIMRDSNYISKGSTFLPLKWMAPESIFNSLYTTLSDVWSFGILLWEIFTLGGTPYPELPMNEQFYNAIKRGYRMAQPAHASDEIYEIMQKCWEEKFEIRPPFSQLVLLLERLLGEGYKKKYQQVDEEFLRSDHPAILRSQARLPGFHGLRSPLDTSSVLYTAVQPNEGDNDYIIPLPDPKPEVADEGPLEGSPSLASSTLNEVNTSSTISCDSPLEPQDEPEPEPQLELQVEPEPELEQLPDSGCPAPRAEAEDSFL
Method: (§1) The yeast growth assay was performed as described in "Method for the identification and/or validation of receptor tyrosine kinase inhibitors" WO2005/040413, section "Modes for Carrying out the Invention", Experiment 1 and Experiment 2: Yeast cells carrying plasmids with the RTK of interest were grown in glucose containing medium (repressing expression). Cultures were diluted into galactose containing medium, which induces expression of the kinase. Expression of the kinase inhibits growth of the yeast cells, which allows for positive selection of kinase inhibitors restoring growth of cells.

VEGFR-1 = target: T3, VEGFR-1 (Homo sapiens, UniProt P17948); test: yeast growth assay, specificity profiling, VEGFR-1; format: cell-based; details: Table Y; legend not given
T3 construct: expressed in transfected cells; host or cells: yeast
Method: as §1

IGF1R = target: T4, IGF1R (Homo sapiens, UniProt P08069); test: yeast growth assay, specificity profiling, IGF1R; format: cell-based; details: Table Y; legend not given
T4 construct: expressed in transfected cells; host or cells: yeast
T4 sequence (P08069 31-1367): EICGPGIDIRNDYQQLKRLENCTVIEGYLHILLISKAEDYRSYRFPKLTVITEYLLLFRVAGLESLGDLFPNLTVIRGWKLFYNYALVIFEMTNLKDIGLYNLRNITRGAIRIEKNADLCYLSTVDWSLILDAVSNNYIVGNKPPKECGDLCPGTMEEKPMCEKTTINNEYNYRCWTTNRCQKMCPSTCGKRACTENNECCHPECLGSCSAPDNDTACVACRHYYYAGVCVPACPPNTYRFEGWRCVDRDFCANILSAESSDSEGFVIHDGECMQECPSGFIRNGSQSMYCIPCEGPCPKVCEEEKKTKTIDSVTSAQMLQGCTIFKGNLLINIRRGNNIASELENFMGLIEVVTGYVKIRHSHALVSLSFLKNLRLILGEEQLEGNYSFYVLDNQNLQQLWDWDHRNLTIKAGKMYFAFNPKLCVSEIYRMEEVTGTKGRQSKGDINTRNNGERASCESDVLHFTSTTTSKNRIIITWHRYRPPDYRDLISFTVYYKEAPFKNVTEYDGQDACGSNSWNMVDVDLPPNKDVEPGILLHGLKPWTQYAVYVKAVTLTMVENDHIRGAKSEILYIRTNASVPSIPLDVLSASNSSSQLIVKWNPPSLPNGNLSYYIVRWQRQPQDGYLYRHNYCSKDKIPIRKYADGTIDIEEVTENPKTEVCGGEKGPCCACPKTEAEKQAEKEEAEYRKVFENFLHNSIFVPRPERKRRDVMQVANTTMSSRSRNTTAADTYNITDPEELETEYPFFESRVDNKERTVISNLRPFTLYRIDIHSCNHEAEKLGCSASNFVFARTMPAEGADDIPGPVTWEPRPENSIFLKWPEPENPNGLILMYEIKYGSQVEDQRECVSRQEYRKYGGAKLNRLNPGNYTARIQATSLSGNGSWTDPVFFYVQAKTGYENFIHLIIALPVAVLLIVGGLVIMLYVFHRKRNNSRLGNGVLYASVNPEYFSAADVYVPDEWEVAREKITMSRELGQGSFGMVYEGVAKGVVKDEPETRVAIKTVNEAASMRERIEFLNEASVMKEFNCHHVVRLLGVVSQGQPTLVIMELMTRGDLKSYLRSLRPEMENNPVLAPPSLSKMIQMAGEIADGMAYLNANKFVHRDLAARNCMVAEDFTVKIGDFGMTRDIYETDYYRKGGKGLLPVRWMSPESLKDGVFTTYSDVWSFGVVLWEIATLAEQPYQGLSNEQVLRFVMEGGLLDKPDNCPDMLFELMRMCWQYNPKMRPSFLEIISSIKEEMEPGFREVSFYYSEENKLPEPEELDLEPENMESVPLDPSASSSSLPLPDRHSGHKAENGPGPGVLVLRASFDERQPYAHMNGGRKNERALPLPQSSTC
Method: as §1

EGFR = target: T5, EGFR (Homo sapiens, UniProt P00533); test: yeast growth assay, specificity profiling, EGFR; format: cell-based; details: Table Y; legend not given
T5 construct: expressed in transfected cells; host or cells: yeast
Method: as §1

VEGFR-2 = target: T6, VEGFR-2 (Homo sapiens, UniProt P35968); test: yeast growth assay, specificity profiling, VEGFR-2; format: cell-based; details: Table Y; legend not given
T6 construct: expressed in transfected cells; host or cells: yeast
T6 sequence (P35968 20-1356): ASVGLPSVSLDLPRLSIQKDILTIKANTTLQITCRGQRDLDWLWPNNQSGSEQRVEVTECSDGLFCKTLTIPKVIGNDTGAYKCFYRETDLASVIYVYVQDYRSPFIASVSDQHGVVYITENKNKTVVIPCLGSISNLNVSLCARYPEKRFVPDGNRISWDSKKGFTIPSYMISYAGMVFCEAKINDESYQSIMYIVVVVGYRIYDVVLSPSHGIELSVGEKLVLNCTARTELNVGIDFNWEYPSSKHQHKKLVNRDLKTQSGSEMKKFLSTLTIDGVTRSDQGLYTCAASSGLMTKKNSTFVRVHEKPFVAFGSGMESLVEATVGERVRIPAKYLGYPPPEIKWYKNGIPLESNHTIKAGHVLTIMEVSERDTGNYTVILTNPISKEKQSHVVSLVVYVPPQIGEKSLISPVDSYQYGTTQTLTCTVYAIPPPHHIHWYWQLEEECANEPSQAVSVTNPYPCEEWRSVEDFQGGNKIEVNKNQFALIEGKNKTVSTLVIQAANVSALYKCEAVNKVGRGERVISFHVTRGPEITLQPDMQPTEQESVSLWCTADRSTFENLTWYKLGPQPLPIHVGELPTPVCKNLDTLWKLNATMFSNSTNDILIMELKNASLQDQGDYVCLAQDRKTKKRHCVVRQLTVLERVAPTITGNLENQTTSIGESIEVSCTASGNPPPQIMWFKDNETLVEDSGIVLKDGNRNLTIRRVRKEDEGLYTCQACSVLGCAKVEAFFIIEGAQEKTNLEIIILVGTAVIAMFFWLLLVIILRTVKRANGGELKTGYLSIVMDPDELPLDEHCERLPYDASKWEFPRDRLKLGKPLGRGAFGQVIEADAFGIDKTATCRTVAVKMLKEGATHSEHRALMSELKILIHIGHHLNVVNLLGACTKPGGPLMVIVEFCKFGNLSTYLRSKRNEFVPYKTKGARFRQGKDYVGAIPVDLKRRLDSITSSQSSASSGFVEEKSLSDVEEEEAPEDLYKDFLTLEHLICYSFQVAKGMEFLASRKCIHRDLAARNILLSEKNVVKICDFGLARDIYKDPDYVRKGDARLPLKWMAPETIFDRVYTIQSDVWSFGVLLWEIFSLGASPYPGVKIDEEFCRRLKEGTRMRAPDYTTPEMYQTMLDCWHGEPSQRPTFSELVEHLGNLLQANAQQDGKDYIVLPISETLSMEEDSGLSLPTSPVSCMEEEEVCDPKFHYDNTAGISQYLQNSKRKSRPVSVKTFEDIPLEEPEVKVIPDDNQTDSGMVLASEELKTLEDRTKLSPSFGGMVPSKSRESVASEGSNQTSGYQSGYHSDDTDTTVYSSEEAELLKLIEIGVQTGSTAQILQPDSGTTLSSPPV
Method: as §1

InsR = target: T7, InsR (Homo sapiens, UniProt P06213); test: yeast growth assay, specificity profiling, InsR; format: cell-based; details: Table Y; legend not given
T7 construct: expressed in transfected cells; host or cells: yeast
Method: as §1

c-Met = target: T8, c-Met (Homo sapiens, UniProt P08581); test: yeast growth assay, specificity profiling, c-Met; format: cell-based; details: Table Y; legend not given
T8 construct: expressed in transfected cells; host or cells: yeast
T8 sequence (P08581 25-1390): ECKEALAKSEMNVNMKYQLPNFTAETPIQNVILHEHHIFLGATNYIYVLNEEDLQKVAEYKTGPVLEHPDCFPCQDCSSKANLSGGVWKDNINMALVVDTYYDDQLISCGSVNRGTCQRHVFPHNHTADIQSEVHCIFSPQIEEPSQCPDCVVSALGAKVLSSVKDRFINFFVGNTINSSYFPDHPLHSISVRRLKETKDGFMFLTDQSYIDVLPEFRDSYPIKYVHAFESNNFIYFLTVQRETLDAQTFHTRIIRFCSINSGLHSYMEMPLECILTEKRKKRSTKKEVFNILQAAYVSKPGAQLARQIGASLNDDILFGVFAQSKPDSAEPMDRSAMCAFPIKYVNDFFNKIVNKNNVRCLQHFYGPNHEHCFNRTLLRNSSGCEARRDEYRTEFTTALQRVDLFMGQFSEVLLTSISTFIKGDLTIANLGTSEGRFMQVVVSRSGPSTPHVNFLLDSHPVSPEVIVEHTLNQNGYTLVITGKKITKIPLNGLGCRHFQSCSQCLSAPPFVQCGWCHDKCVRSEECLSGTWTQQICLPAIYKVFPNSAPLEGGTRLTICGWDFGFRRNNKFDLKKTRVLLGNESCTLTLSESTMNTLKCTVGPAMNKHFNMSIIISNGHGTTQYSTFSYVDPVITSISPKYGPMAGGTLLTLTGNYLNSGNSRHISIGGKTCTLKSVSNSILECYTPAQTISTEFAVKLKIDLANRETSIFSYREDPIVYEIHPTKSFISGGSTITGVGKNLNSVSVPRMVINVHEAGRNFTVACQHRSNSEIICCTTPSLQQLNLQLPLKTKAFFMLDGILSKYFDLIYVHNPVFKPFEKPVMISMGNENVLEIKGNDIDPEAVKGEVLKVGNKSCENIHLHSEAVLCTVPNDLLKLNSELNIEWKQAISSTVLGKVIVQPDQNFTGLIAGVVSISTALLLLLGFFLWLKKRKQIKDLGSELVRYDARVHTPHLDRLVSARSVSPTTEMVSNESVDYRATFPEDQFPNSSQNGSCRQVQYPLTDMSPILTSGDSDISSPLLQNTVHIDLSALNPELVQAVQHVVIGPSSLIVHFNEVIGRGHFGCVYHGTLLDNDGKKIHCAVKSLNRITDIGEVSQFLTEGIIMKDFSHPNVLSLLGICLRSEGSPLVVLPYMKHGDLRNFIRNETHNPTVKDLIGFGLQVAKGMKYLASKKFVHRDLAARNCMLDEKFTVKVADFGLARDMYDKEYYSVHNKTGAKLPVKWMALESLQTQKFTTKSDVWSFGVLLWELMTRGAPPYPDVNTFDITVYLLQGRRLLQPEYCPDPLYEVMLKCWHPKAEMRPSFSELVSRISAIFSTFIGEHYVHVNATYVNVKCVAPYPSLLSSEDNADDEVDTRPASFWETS
Method: as §1

ErbB2 = target: T9, ErbB2 (Homo sapiens, UniProt P04626); test: yeast growth assay, specificity profiling, ErbB2; format: cell-based; details: Table Y; legend not given
T9 construct: expressed in transfected cells; host or cells: yeast
Method: as §1

Cc1ccccc1Nc1nc(NCc2ccco2)nc2c1cnn2C
IC50 (human EphB4 [1]): < 1000 nM | IC50 (human EphB4 [2]): 1000 to 10000 nM

CCCCNc1nc(Nc2ccccc2C)c2cnn(C)c2n1
IC50 (human EphB4 [1]): < 1000 nM | IC50 (human EphB4 [2]): < 1000 nM

Cc1cc(Cl)ccc1Nc1nc(NC2CCCC2)nc2c1cnn2C
IC50 (human EphB4 [1]): 1000 to 10000 nM | IC50 (human EphB4 [2]): 1000 to 10000 nM

COCCCNc1nc(Nc2ccccc2C)c2cnn(C)c2n1
IC50 (human EphB4 [1]): < 1000 nM

Cc1ccccc1Nc1nc(NC2CCCC2)nc2c1cnn2C
IC50 (human EphB4 [1]): < 1000 nM

Cc1ccc(Nc2nc(NCc3ccco3)nc3c2cnn3C)c(C)c1
IC50 (human EphB4 [1]): 1000 to 10000 nM

CNc1nc(Nc2ccc(C)cc2C)c2cnn(C)c2n1
IC50 (human EphB4 [1]): 1000 to 10000 nM

CCCNc1nc(Nc2ccc(Cl)cc2C)c2cnn(C)c2n1
IC50 (human EphB4 [1]): 1000 to 10000 nM

Cc1ccccc1Nc1nc(N2CCCC2)nc2c1cnn2C
IC50 (human EphB4 [1]): 1000 to 10000 nM

C=CCNc1nc(Nc2ccccc2C)c2cnn(C)c2n1
IC50 (human EphB4 [1]): < 1000 nM

Cc1ccccc1Nc1nc(Nc2ccccc2)nc2c1cnn2C
IC50 (human EphB4 [1]): 1000 to 10000 nM

Cc1ccccc1Nc1nc(N(C)C)nc2c1cnn2C
IC50 (human EphB4 [1]): 1000 to 10000 nM

CCNc1nc(Nc2ccccc2C)c2cnn(C)c2n1
IC50 (human EphB4 [1]): < 1000 nM | IC50 (human EphB4 [2]): < 1000 nM

CCCNc1nc(Nc2ccccc2C)c2cnn(C)c2n1
IC50 (human EphB4 [1]): < 1000 nM

CCNc1nc(Nc2ccc(C)cc2C)c2cnn(C)c2n1
IC50 (human EphB4 [1]): 1000 to 10000 nM

Cc1ccccc1Nc1nc(N2CCOCC2)nc2c1cnn2C
IC50 (human EphB4 [1]): 1000 to 10000 nM

Cc1ccccc1Nc1nc(N2CCN(C(=O)c3ccco3)CC2)nc2c1cnn2C
IC50 (human EphB4 [1]): 1000 to 10000 nM

COCCNc1nc(Nc2ccccc2C)c2cnn(C)c2n1
IC50 (human EphB4 [1]): < 1000 nM

CNc1nc(Nc2ccccc2C)c2cnn(C)c2n1
IC50 (human EphB4 [1]): < 1000 nM

Cc1ccccc1Nc1nc(Nc2ccc(F)cc2)nc2c1cnn2C
IC50 (human EphB4 [1]): 1000 to 10000 nM

CNc1nc(Nc2ccc(Cl)cc2C)c2cnn(C)c2n1 [drawing 56]
IC50 (human EphB4 [1]): 1000 to 10000 nM | IC50 (human EphB4 [2]): > 10000 nM

CCN(CC)CCNc1nc(Nc2ccccc2C)c2cnn(C)c2n1
IC50 (human EphB4 [1]): < 1000 nM

Cc1ccccc1Nc1nc(NCc2ccccc2)nc2c1cnn2C
IC50 (human EphB4 [1]): 1000 to 10000 nM

CNc1nc(Nc2ccc(Cl)cc2C)c2cnn(C)c2n1 [[drawing]]
Specificity profiling in the yeast growth assay: PDGFRb (PDGFRb): 0 | Specificity profiling in the yeast growth assay: VEGFR-1 (VEGFR-1): 0 | Specificity profiling in the yeast growth assay: IGF1R (IGF1R): 0 | Specificity profiling in the yeast growth assay: EGFR (EGFR): 0 | Specificity profiling in the yeast growth assay: VEGFR-2 (VEGFR-2): 0 | Specificity profiling in the yeast growth assay: InsR (InsR): 0 | Specificity profiling in the yeast growth assay: c-Met (c-Met): 0 | Specificity profiling in the yeast growth assay: ErbB2 (ErbB2): 0

Cc1ccccc1Nc1nc(NCc2ccccc2Cl)nc2c1cnn2C
IC50 (human EphB4 [1]): 1000 to 10000 nM | IC50 (human EphB4 [2]): < 1000 nM
